Results: patent US6184217A (Cephalon, Inc., priority 1997, dated 2001)

Assays:
[1] = system: GABA-ergic neurons in the nucleus basalis magnocellularis; experiment: Ibotenic acid lesion: glutamic acid decarboxylase-expressing (GABA-ergic) neurons in nbm; assay type: in vivo, Sprague-Dawley rats
Experimental: Compound A was tested for its ability to prevent depletion (e.g., enhance the survival) of GABA-ergic neurons in the nucleus basalis magnocellularis, using the well-established ibotenic acid lesion mode. Ibotenic acid, an excitotoxin, is known to reduce numbers of GABA-expressing neurons in the nbm region (Lindefors et al., Neurosci. Lett., 135:262-264, 1992; Shaugnessy et al., Brain Res., 637:15-26, 1994). […] The rats were then dosed with Compound A (0.03 mg/kg) via subcutaneous injection beginning 18 hours after the lesion, and continuing q.o.d. until 18 days post-lesion. […] The numbers of neurons expressing glutamic acid decarboxylase were then counted throughout the rostral-caudal extent of the nucleus basalis magnocellularis, in a region where glutamic acid decarboxylase-expressing neurons of the nbm are easily distinguished from glutamic acid decarboxylase-expressing neurons in adjacent structures (white matter medial and ventral to the globus pallidus). The results were expressed as percent glutamic acid decarboxylase-expressing neurons on the lesioned side relative to the number on the opposite, unlesioned side. The results were also calculated separately for the rostral nbm, mid-nmb, and caudal nbm.

monoamine oxidase-B = monoamine oxidase-B (Homo sapiens, UniProt P27338); experiment: Monoamine oxidase-B inhibition in vitro; conditions: FIG. 2
Sequence of monoamine oxidase-B (P27338 whole entry): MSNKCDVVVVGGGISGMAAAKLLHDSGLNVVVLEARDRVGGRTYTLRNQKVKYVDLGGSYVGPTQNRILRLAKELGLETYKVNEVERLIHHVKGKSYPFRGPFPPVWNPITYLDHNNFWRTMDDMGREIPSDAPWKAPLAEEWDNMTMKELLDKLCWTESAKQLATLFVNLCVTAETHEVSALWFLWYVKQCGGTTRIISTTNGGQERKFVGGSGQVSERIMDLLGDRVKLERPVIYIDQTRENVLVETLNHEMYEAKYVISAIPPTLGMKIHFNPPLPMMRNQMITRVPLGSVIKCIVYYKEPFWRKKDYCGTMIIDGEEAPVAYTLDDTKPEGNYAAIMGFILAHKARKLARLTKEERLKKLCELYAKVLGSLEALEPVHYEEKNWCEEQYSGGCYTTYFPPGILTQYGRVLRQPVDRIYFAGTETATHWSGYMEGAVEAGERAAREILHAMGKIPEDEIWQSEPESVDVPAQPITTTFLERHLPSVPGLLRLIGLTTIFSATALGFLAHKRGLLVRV

monoamine oxidase-A = monoamine oxidase-A (Homo sapiens, UniProt P21397); experiment: Monoamine oxidase-A inhibition in vitro; assay type: biochemical; conditions: FIG. 1
Sequence of monoamine oxidase-A (P21397 whole entry): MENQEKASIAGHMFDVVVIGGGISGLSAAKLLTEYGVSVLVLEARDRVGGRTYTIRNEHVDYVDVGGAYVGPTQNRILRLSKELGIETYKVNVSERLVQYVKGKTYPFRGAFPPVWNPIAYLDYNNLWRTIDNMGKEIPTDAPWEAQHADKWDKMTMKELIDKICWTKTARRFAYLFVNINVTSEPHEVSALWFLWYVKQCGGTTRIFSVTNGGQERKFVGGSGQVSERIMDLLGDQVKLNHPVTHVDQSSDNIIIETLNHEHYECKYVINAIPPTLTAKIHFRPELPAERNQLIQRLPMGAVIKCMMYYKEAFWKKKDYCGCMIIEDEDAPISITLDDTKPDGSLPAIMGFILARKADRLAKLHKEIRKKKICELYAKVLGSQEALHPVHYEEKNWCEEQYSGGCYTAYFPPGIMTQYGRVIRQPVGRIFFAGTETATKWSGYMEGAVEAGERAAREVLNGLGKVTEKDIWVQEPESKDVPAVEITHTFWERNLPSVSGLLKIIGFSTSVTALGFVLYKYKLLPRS

Compound: CCSCc1ccc2c(c1)c1c3c(c4c5cc(CSCC)ccc5n5c4c1n2C1CC(O)(C(=O)OC)C5(C)O1)CNC3=O (stereo not shown) [Compound A]
- glutamic acid decarboxylase-expressing neurons vs vehicle-only animals ([1]; mid-nbm or caudal nbm, 0.03 mg/kg s.c. q.o.d.): No statistically significant differences
- glutamic acid decarboxylase-expressing neurons on lesioned side relative to unlesioned side ([1]; rostral nbm, 0.03 mg/kg s.c. q.o.d. until 18 days post-lesion, mean, s.e.m., p<0.05 vs vehicle (34 ± 19)): 78 (±16 s.c.m.) percent
- monoamine oxidase-B inhibition (monoamine oxidase-B): not a monoamine oxidase-B inhibitor
- monoamine oxidase-A inhibition (monoamine oxidase-A): not a monoamine oxidase-A inhibitor
